This is an account of results in ChEMBL document CHEMBL3861980, “Discovery of Benzothiazole Scaffold-Based DNA Gyrase B Inhibitors” (J Med Chem, 2016).

Experiment [1] deals with DNA gyrase subunit B (Staphylococcus aureus, UniProt P0A0K8).
Description: Inhibition of Staphylococcus aureus DNA gyrase B ATP binding site assessed as reduction in supercoiling of relaxed pNO1 DNA after 30 mins in presence of biotinylated oligonucleotide by sybrGOLD staining based fluorescence assay
Experiment [2] concerns the target DNA gyrase subunit B (Escherichia coli, UniProt P0AES6).
Description: Inhibition of Escherichia coli DNA gyrase B ATP binding site assessed as reduction in supercoiling of relaxed pNO1 DNA after 30 mins in presence of biotinylated oligonucleotide by sybrGOLD staining based fluorescence assay
For a further experiment, the system named is Enterococcus faecalis. The experiment can be described thus: microbe, parasite or virus in culture. As to conditions: ATCC 29212, 24 h, read-out: GI.
Experiment [3] concerns Escherichia coli. Description: Antibacterial activity against Escherichia coli ECM1194 lacking tolC gene by broth microdilution method. It is filed as functional. A general note: Dilution methods test growth across graded concentrations, often in twofold steps.
The subject of experiment [4] is Escherichia coli. The experiment can be described thus: Antibacterial activity against wild type Escherichia coli ECM1194 by broth microdilution method. In kind it is functional.
The test system of a further experiment is Pseudomonas aeruginosa. The experiment can be described thus: Growth inhibition of Pseudomonas aeruginosa ATCC 27853 at 50 uM after 24 hrs by broth microdilution method. Conditions: ATCC 27853, 24 h, read-out: GI. It is filed as functional.
Experiment [5] relates to Escherichia coli. The experiment can be described thus: Growth inhibition of Escherichia coli ATCC 25922 at 50 uM after 24 hrs by broth microdilution method. Conditions: ATCC 25922, 24 h, read-out: GI. It is filed as functional.

Chain of DNA gyrase subunit B (Staphylococcus aureus, UniProt P0A0K8) (P0A0K8 whole entry): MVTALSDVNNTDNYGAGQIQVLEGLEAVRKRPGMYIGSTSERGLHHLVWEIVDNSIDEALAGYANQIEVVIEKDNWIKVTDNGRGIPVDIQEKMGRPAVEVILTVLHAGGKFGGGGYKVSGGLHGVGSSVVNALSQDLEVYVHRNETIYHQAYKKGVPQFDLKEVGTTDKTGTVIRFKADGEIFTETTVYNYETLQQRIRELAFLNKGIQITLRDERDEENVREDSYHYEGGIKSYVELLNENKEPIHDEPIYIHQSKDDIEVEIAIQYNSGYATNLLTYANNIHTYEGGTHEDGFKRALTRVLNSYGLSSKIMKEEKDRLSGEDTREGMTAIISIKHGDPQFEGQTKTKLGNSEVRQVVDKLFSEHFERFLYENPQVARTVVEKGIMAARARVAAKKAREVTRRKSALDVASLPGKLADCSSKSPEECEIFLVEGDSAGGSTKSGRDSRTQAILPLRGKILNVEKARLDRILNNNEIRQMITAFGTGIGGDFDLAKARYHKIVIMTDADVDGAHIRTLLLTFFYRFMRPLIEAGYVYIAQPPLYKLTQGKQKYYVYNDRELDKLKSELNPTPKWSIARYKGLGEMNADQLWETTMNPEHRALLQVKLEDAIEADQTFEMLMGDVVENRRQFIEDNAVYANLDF
Description for Enterococcus faecalis: Growth inhibition of Enterococcus faecalis ATCC 29212 at 50 uM after 24 hrs by broth microdilution method

`COC(=O)CC(=O)Nc1nc2ccc(NC(=O)c3cc(Br)c(Br)[nH]3)cc2s1`: the results for the IC50 on DNA gyrase subunit B [1] and against DNA gyrase subunit B [2] were greater than 100 µM and 0.24 µM, respectively.
Taken in the same sequence, the figures for `O=C(O)C(=O)Nc1nc2ccc(NC(=O)c3cc(Br)c(Br)[nH]3)cc2s1` were greater than 100 µM and 0.038 µM.
For `O=C(O)CCC(=O)Nc1ccc2nc(NC(=O)c3cc(Br)c(Br)[nH]3)sc2c1`, the IC50 was greater than 100 µM against DNA gyrase subunit B [1] and 0.033 µM on DNA gyrase subunit B [2].
Take `COC(=O)CCC(=O)Nc1nc2ccc(NC(=O)c3cc(Br)c(Br)[nH]3)cc2s1`: the IC50 against DNA gyrase subunit B [1] was greater than 100 µM; at DNA gyrase subunit B [2] it was 0.87 µM.
Consider `O=C(O)CCC(=O)Nc1ccc2nc(NC(=O)c3cc(Cl)c(Cl)[nH]3)sc2c1`, for which the IC50 on DNA gyrase subunit B [1] is 94 µM; against DNA gyrase subunit B [2] it was 0.43 µM.
Take `O=C(O)CC(=O)Nc1ccc2nc(NC(=O)c3cc(Cl)c(Cl)[nH]3)sc2c1`: the values for the IC50 on DNA gyrase subunit B [1] and at DNA gyrase subunit B [2] were 8.5 µM and 0.12 µM, respectively.
As to `COC(=O)CC(=O)Nc1ccc2nc(NC(=O)c3cc(Cl)c(Cl)[nH]3)sc2c1`, the results for the IC50 at DNA gyrase subunit B [1] and at DNA gyrase subunit B [2] were greater than 100 µM and 0.22 µM, respectively.
On to `CCOC(=O)C(=O)Nc1nc2ccc(NC(=O)c3cc(Cl)c(Cl)[nH]3)cc2s1`, for which the IC50 against DNA gyrase subunit B [1] is greater than 100 µM; at DNA gyrase subunit B [2], 1.8 µM. Also, the inhibition of growth at 50 µM in the experiment on Enterococcus faecalis came out at 47%.
For `COC(=O)CCC(=O)Nc1ccc2nc(NC(=O)c3cc(Br)c(Br)[nH]3)sc2c1`, the concentration for half-maximal inhibition (IC50) at DNA gyrase subunit B [1] was greater than 100 µM; on DNA gyrase subunit B [2], 7 µM.
With `O=C(O)C(=O)Nc1ccc2nc(NC(=O)c3cc(Cl)c(Cl)[nH]3)sc2c1`, the IC50 against DNA gyrase subunit B [1] is 0.51 µM.
Regarding `CCOC(=O)C(=O)Nc1ccc2nc(NC(=O)c3cc(Br)c(Br)[nH]3)sc2c1`, the values for the IC50 against DNA gyrase subunit B [1] and at DNA gyrase subunit B [2] were greater than 100 µM and 29 µM, respectively.
With `CCOC(=O)C(=O)Nc1nc2ccc(NC(=O)c3cc(Br)c(Br)[nH]3)cc2s1`, the IC50 is greater than 100 µM at DNA gyrase subunit B [1] and 0.081 µM against DNA gyrase subunit B [2].
`O=C(O)CC(=O)Nc1ccc2nc(NC(=O)c3cc(Br)c(Br)[nH]3)sc2c1`: the MIC in the experiment on Escherichia coli [3] is less than 16 µg/mL; in the experiment on Escherichia coli [4] it was greater than 256 µg/mL. Also, the IC50 stood at 5.6 µM at DNA gyrase subunit B [1] and 0.14 µM at DNA gyrase subunit B [2]. In addition, the inhibition of growth at 50 µM is 59% with Enterococcus faecalis, 11% with Pseudomonas aeruginosa and 12% with Escherichia coli [5].
As to `Nc1ccc2nc(NC(=O)c3cc(Br)c(Br)[nH]3)sc2c1`, the IC50 on DNA gyrase subunit B [1] was greater than 100 µM; against DNA gyrase subunit B [2] it was 2 µM.
Consider `COC(=O)CCC(=O)Nc1ccc2nc(NC(=O)c3cc(Cl)c(Cl)[nH]3)sc2c1`, for which the results for the IC50 at DNA gyrase subunit B [1] and against DNA gyrase subunit B [2] were greater than 100 µM and 35 µM, respectively.
For `COC(=O)CC(=O)Nc1nc2ccc(NC(=O)c3cc(Cl)c(Cl)[nH]3)cc2s1` the same measures were greater than 100 µM and 7.9 µM.
Take `COC(=O)CC(=O)Nc1ccc2nc(NC(=O)c3cc(Br)c(Br)[nH]3)sc2c1`: the IC50 on DNA gyrase subunit B [1] is greater than 100 µM; at DNA gyrase subunit B [2], 2 µM.
As for `CCOC(=O)C(=O)Nc1ccc2nc(NC(=O)c3cc(Cl)c(Cl)[nH]3)sc2c1`, the IC50 at DNA gyrase subunit B [1] and against DNA gyrase subunit B [2] was greater than 100 µM in each case.
Turning to `O=C(O)CCC(=O)Nc1nc2ccc(NC(=O)c3cc(Br)c(Br)[nH]3)cc2s1`, the IC50 against DNA gyrase subunit B [1] was greater than 100 µM; against DNA gyrase subunit B [2], 0.057 µM.
For the molecule `Nc1ccc2nc(NC(=O)c3cc(Cl)c(Cl)[nH]3)sc2c1`, the IC50 against DNA gyrase subunit B [1] and at DNA gyrase subunit B [2] was greater than 100 µM in each case.

Usually IC50 stands for the concentration at which inhibition is half-maximal. Usually MIC stands for the lowest concentration that inhibits growth of the organism. Low readings indicate a more susceptible organism, high ones a less susceptible organism.
